Laboratory results published in patent US10316050B2, “PT (IV) complexes containing 4,4′-disubstituted-2,2′-bipyridyl and their use in cancer therapy” (THE BOARD OF REGENTS OF THE NEVADA SYSTEM OF HIGHER …, priority 2014, dated 2019).
Like-named read-outs stand apart in the source and are kept apart here.

Columns and labels:
Format in all cases: cell-based, human
[1] = system: HCC38 breast cancer cells; assay: MTS cell viability assay, HCC38; conditions: read-out: EC50 (effective concentration that resulted in 50% cell viability)
Method: (§1) Human breast (HCC38, MCF-7, MDA-MB-231, SK-BR-3, T-47D, and ZR-75-1), lung (A549 and H520), and prostate (DU145 and PC-3) cancer cell lines were obtained from American Culture Type Collection (ATCC). The HCC38, MCF-7, MDA-MB-231, SK-BR-3, T-47D, ZR-75-1, and A549 cells were grown in MEM supplemented with 10% FBS, 25 mM HEPES buffer (pH 7.4), penicillin (100 U/mL), and streptomycin (100 μg/mL). The H520, DU145, and PC-3 cell lines were grown in RPMI-1640 supplemented with 10% FBS, 25 mM HEPES buffer (pH 7.4), penicillin (100 U/mL), and streptomycin (100 μg/mL). All cell lines were maintained at 37° C. in a humidified, 5% CO2 atmosphere.
(§2) Cells were cultured at a density of 2-3.5×10^3 cells per well in flat bottomed 96-well plates in 100 μL of complete growth medium and incubated for 2 days to reach ˜50% confluence. The cells were then treated with solvent or the appropriate drugs (CDDP stock was dissolved in 0.15 M NaCl, carboplatin stock was dissolved in 5% glucose, synthesized Pt(IV) complexes were dissolved in DMSO) for 1 hour, washed three times with 100 μL PBS, and incubated in 100 μL of fresh medium. After 2 days, the medium was replaced with 120 μL of medium containing CellTiter 96® Aqueous One Solution Reagent (MTS reagent) (Promega, Madison, Wis.). The cells were incubated at 37° C. for 4 hours and the cell viability was determined by measuring the absorbance at 490 nm using a Tecan Infinite M1000 microplate reader. The 48 h treatment was done in a similar manner, except the cells were not washed after treatment and the MTS reagent was immediately added. Viability of treated groups was calculated as a percent of control and graphed with GraphPad Prism.
(§3) The anti-proliferative activities of Pt(IV) complexes were determined in two lung (A549 and H520), two prostate (DU145 and PC-3), and six breast (HCC38, MCF-7, MDA-MB-231, SK-BR-3, T-47D, and ZR-75-1) cancer cell lines. The cells were treated with increasing concentrations of cisplatin (CDDP), carboplatin, or the Pt(IV) complexes for 1 or 48 hours, and the viability was measured using an MTS colorimetric cell proliferation assay. Graphs of the results are shown for DU145 (FIG. 8A), PC-3 (FIG. 8B), SK-BR-3 (FIG. 8C), ZR-75-1 (FIG. 8D), A549 (FIG. 8E), and MCF-7 (FIG. 8F).

[2] = system: MDA-MB-231 breast cancer cells; assay: MTS cell viability assay, MDA-MB-231; conditions: read-out: EC50 (effective concentration that resulted in 50% cell viability)
Method: as §1, §2, §3

[3] = system: ZR-75-1 breast cancer cells; assay: MTS cell viability assay, ZR-75-1; conditions: read-out: EC50 (effective concentration that resulted in 50% cell viability)
Method: as §1, §2, §3

[4] = system: PC-3 prostate cancer cells; assay: MTS cell viability assay, PC-3; conditions: read-out: EC50 (effective concentration that resulted in 50% cell viability)
Method: as §1, §2, §3
(§4) The anti-proliferative activities of certain Pt(II) complexes were determined in DU145, PC-3, and SK-BR-3 cells. The cells were treated with increasing concentrations of cisplatin (CDDP) or the Pt(II) complexes for 1 or 48 hours, and the viability was measured using an MTS colorimetric cell proliferation assay.

[5] = system: DU145 prostate cancer cells; conditions: for EC50: read-out: EC50 (effective concentration that resulted in 50% cell viability)
Method: as §1, §2, §3, §4

A549 lung cancer cells = assay: MTS cell viability assay, A549; conditions: for EC50: read-out: EC50 (effective concentration that resulted in 50% cell viability)
Method: as §1, §2, §3

H520 lung cancer cells = assay: MTS cell viability assay, H520; conditions: read-out: EC50 (effective concentration that resulted in 50% cell viability)
Method: as §1, §2, §3

[6] = system: T-47D breast cancer cells; assay: MTS cell viability assay, T-47D
Method: as §1, §2, §3

[7] = system: SK-BR-3 breast cancer cells; assay: MTS cell viability assay, SK-BR-3; conditions: read-out: EC50 (effective concentration that resulted in 50% cell viability)
Method: as §1, §2, §3, §4

[8] = system: MCF-7 breast cancer cells; assay: MTS cell viability assay, MCF-7; conditions: for EC50: read-out: EC50 (effective concentration that resulted in 50% cell viability)
Method: as §1, §2, §3

[9] = MDA-MB-231, 1 h treatment, Table 3
[10] = ZR-75-1, 1 h treatment, Table 3
[11] = DU145, 1 hour treatment (FIG. 8A, top), up to 1 mM carboplatin, 100 μM Pt(IV)-1C, 50 μM Pt(IV)-2C
[12] = A549, 48 hour treatment (FIG. 8E)
[13] = 1 h treatment, Table 3, read-out: EC50 (effective concentration that resulted in 50% cell viability)
[14] = 48 h, Table 5, read-out: EC50 (effective concentration that resulted in 50% cell viability)
[15] = SK-BR-3, 1 h treatment, Table 3
[16] = MCF-7, 48 hour treatment (FIG. 8F)
[17] = MDA-MB-231, 1 h treatment, Table 2
[18] = MDA-MB-231, 48 h treatment, Table 4
[19] = ZR-75-1, 1 h treatment, Table 2
[20] = ZR-75-1, 48 h treatment, Table 4
[21] = 1 h treatment, Table 2, read-out: EC50 (effective concentration that resulted in 50% cell viability)
[22] = 48 h treatment, Table 4, read-out: EC50 (effective concentration that resulted in 50% cell viability)
[23] = SK-BR-3, 1 h treatment, Table 2
[24] = SK-BR-3, 48 h treatment, Table 4

Row | Molecule | EC50 ([1]; HCC38, 1 h treatment, Table 3) [µM] | EC50 ([1]; HCC38, 48 h, Table 5) [µM] | EC50 [2, 9] [µM] | EC50 ([2]; MDA-MB-231, 48 h, Table 5) [µM] | EC50 [3, 10] [µM] | EC50 ([3]; ZR-75-1, 48 h, Table 5) [µM] | EC50 ([4]; PC-3, 1 h treatment, Table 3) [µM] | EC50 ([4]; PC-3, 48 h, Table 5) [µM] | effect on cell viability (in words) [5, 11] | EC50 ([5]; DU145, 1 h treatment, Table 3) [µM] | EC50 ([5]; DU145, 48 h, Table 5) [µM] | EC50 (A549 lung cancer cells; A549, 1 h treatment, Table 3) [µM] | EC50 (A549 lung cancer cells; A549, 48 h, Table 5) [µM] | EC50 (H520 lung cancer cells; H520, 1 h treatment, Table 3) [µM] | EC50 (H520 lung cancer cells; H520, 48 h, Table 5) [µM] | EC50 [6, 13] [µM] | EC50 [6, 14] [µM] | EC50 [7, 15] [µM] | EC50 ([7]; SK-BR-3, 48 h, Table 5) [µM] | EC50 ([8]; MCF-7, 1 h treatment, Table 3) [µM] | further results
1 | [Pt(IV)Cl2(OAc)2(4,4′-dimethoxy-2,2′-bipyridine)] [Pt(IV)-1C] | > 100 | > 100 | > 100 | > 100 | > 100 | > 100 | > 100 | > 100 | did not have any effects | > 100 | 80 ± 20 | > 100 | > 100 | > 100 | > 100 | > 100 | 32 ± 0.5 | > 100 | 80 ± 20 | > 100 | effect on cell viability (in words) ([5]; DU145, 48 hours treatment (FIG. 8A, bottom)): more effective than carboplatin; effect on cell viability (in words) (A549 lung cancer cells; [12]): had no effect; EC50 ([8]; MCF-7, 48 h, Table 5): > 100 µM; effect on cell viability (in words) [8, 16]: had no effect
2 | CCCCCOc1ccnc(-c2cc(OCCCCC)ccn2)c1.[Cl][Pt][Cl] [Pt(II)-5C] |  |  |  |  |  |  |  |  |  |  |  |  |  |  |  |  |  |  |  |  | EC50 ([1]; HCC38, 1 h treatment, Table 2): 13 ± 5 µM; EC50 ([1]; HCC38, 48 h treatment, Table 4): 10 ± 2 µM; EC50 [2, 17]: 4 ± 2 µM; EC50 [2, 18]: 4.1 ± 0.2 µM; EC50 [3, 19]: 8 ± 3 µM; EC50 [3, 20]: 6.6 ± 0.7 µM; EC50 ([4]; PC-3, 1 h treatment, Table 2): 7 ± 1 µM; EC50 ([4]; PC-3, 48 h treatment, Table 4): 7.3 ± 0.7 µM; EC50 ([5]; DU145, 1 h treatment, Table 2): 8 ± 2 µM; EC50 ([5]; DU145, 48 h treatment, Table 4): 6 ± 0.7 µM; EC50 (A549 lung cancer cells; A549, 1 h treatment, Table 2): 18 ± 1 µM; EC50 (A549 lung cancer cells; A549, 48 h treatment, Table 4): 16.5 ± 0.5 µM; EC50 (H520 lung cancer cells; H520, 1 h treatment, Table 2): 23 ± 5 µM; EC50 (H520 lung cancer cells; H520, 48 h treatment, Table 4): 17 ± 3 µM; EC50 [6, 21]: 9 ± 3 µM; EC50 [6, 22]: 3 ± 1 µM; EC50 [7, 23]: 2.8 ± 0.8 µM; EC50 [7, 24]: 2.4 ± 0.4 µM; EC50 ([8]; MCF-7, 1 h treatment, Table 2): 21 ± 5 µM; EC50 ([8]; MCF-7, 48 h treatment, Table 4): 15 ± 7 µM
3 | COc1ccnc(-c2cc(OC)ccn2)c1.[Cl][Pt][Cl] [Pt(II)-1C] |  |  |  |  |  |  |  |  |  |  |  |  |  |  |  |  |  |  |  |  | EC50 ([1]; HCC38, 1 h treatment, Table 2): 80 ± 20 µM; EC50 ([1]; HCC38, 48 h treatment, Table 4): 57 ± 2 µM; EC50 [2, 17]: > 100 µM; EC50 [2, 18]: > 100 µM; EC50 [3, 19]: 67 ± 27 µM; EC50 [3, 20]: 26 ± 1 µM; EC50 ([4]; PC-3, 1 h treatment, Table 2): > 100 µM; EC50 ([4]; PC-3, 48 h treatment, Table 4): 40 ± 7 µM; EC50 ([5]; DU145, 1 h treatment, Table 2): 40 ± 10 µM; EC50 ([5]; DU145, 48 h treatment, Table 4): 24 ± 2 µM; EC50 (A549 lung cancer cells; A549, 1 h treatment, Table 2): > 100 µM; EC50 (A549 lung cancer cells; A549, 48 h treatment, Table 4): > 100 µM; EC50 (H520 lung cancer cells; H520, 1 h treatment, Table 2): > 100 µM; EC50 (H520 lung cancer cells; H520, 48 h treatment, Table 4): 30 ± 2 µM; EC50 [6, 21]: 20 ± 1 µM; EC50 [6, 22]: 21 ± 1 µM; EC50 [7, 23]: 19 ± 5 µM; EC50 [7, 24]: 23 ± 2 µM; EC50 ([8]; MCF-7, 1 h treatment, Table 2): > 100 µM; EC50 ([8]; MCF-7, 48 h treatment, Table 4): > 100 µM
4 | CC(=O)[O][Pt]([Cl])([Cl])[O]C(C)=O.CCCOc1ccnc(-c2cc(OCCC)ccn2)c1 [Pt(IV)-3C, [Pt(IV)Cl2(OAc)2(4,4′-dipropoxy-2,2′-bipyridine)]] | 26 ± 6 | 8 ± 1 | 34 ± 7 | 6.1 ± 0.4 | 24 ± 3 | 1.21 ± 0.04 | 23 ± 0.3 | 1.1 ± 0.4 | least effective among the five active compounds | 24 ± 7 | 1 ± 1 | > 50 | 23 ± 1 | 80 ± 20 | 8 ± 6 | 24 ± 3 | 0.59 ± 0.01 | 19 ± 2 | 0.9 ± 0.1 | > 100 | effect on cell viability (in words) (A549 lung cancer cells; A549, 1 hour treatment, at the concentrations tested (FIG. 8E)): did not have any effect; effect on cell viability (in words) ([8]; MCF-7, 1 hour treatment, at the concentrations tested (FIG. 8F)): did not have any effect; EC50 ([8]; MCF-7, 48 h, Table 5): 29 ± 2 µM
5 | CC(=O)[O][Pt]([Cl])([Cl])[O]C(C)=O.CCOc1ccnc(-c2cc(OCC)ccn2)c1 [Pt(IV)-2C, [Pt(IV)Cl2(OAc)2(4,4′-diethoxy-2,2′-bipyridine)]] | 93 ± 10 | 30 ± 9 | > 100 | 28 ± 7 | > 50 | 17 ± 7 | > 50 | 20 ± 2 | did not have any effects | > 50 | 10 ± 4 | > 50 | > 50 | > 100 | 61 ± 2 | 46 ± 8 | 0.95 ± 0.03 | 40 ± 10 | 8.3 ± 0.7 | > 100 | effect on cell viability (in words) (A549 lung cancer cells; [12]): had no effect; EC50 ([8]; MCF-7, 48 h, Table 5): > 100 µM; effect on cell viability (in words) [8, 16]: had no effect
